Legend:
[1] = target: BTK protein in human whole blood (Homo sapiens (Human), UniProt Q06187); experiment: Btk protein in human whole blood MSD ELISA based assay (Btk degradation); format: cell-based; conditions: human whole blood from healthy donors, 6 hours at 37° C., half maximal degradation concentration; read-out: hWB BTK DC50
Protocol: Btk protein degradation was tested using an Meso Scale Discovery-ELISA system (MSD-ELISA): (1) Test compounds were added to human whole blood; (2) human whole blood cells treated with test compounds were lysed; (3) lysed cells were treated with capture antibody, an antibody to Btk; (4) lysed cells were treated with […] to Btk; and (5) lysed cells were treated with anti-mouse antibody (tagged).
Specifically, about 80 μl of fresh human whole blood from healthy donors was transferred into each well of a 96-well V-bottom plate (Costar, Cat No.3894). Using a TECANTM D300e Digital Dispenser (Tecan)), 1:4 serially diluted compounds [(8 pt assay) in DMSO solution (final 0.2%) starting at 3 μM top concentration], were added in duplicate. Thereafter, plates were placed in a 37° C. incubator and incubated for 6 hours.
At the end of incubation, 80 μl of 2× CST lysis buffer (Cell Signaling Technology, Cat No. 9803), prepared from a 10× stock solution, was added per well to lyse the blood. Plates were then sealed with a plate sealer and the samples were frozen overnight at −80° C.
Total amount of BTK protein remaining in the blood samples after compound treatment was measured using MSD-ELISA. After thawing the frozen plates, blood lysates were mixed thoroughly and transferred to small spot high-bind MSD plates (Meso Scale Discovery, Cat No. L45XB-3) and coated with capturing antibody, rabbit anti-human BTK (D3H5) (Cell Signaling Technology, Cat No. 8547CF). Thereafter, primary detection antibody, mouse anti-human BTK monoclonal antibody, (BD Biosciences, Cat No. 611117) and secondary detection antibody, anti-mouse SULFO-TAG (Meso Scale Discovery, Cat No. R32AC-1) were added. The assay plates were read on an MSD S600 plate reader by the addition of 2× MSD read buffer (Meso Scale Discovery, R92TC-1). All reagent transfers, including blood lysis, was conducted using a Biomed i7 liquid handler. From the dose response curves, DC50 values were calculated by averaging data from duplicate experiments. and Curve fitting was done by non-linear regression using GraphPad Prism. The DC50 values are reported in Table 2 in the hWB BTK DC50 (nM) column The Dmax values represent the maximum amount of BTK degradation observed upon compound treatment compared to DMSO only treated samples. The dMax (%) values are reported in Table 2 in the hWB BTK dMax (%) column.

[2] = target: BTK in mouse bone marrow (Mus musculus (Mouse), UniProt P35991); experiment: Mouse Bone Marrow Assay (MSD ELISA of BTK degradation in mouse bone marrow); format: in vivo; conditions: female C57BL/6J mice, single dose of Dose A, bone marrow collected after 24 hours, % remaining BTK in vehicle versus treated samples
Protocol: Female C57BL/6J mice (Jackson Laboratories) were used for this study. Compounds or vehicle/control were prepped with EtOH; PEG-400; Phosal 53 MCT (10:30:60, v/v). Four mice were tested per compound or vehicle/control. On Day 1, mice were administered a single dose of Dose A. On Day 2 (after 24 hours), tissue (bone marrow) was collected from one hind leg per mouse.
An MSD (Meso Scale Discovery) ELISA (enzyme-linked immunosorbent assay) based assay was used to determine BTK degradation in mouse bone marrow. The following materials and equipment were used: 10% NP40 solution (nonionic polyoxyethylene surfactant, ThermoFisher, cat no. 28324); protease inhibitor mini tablet (Roche, cat no. 05 892 970 001); PhosphoSTOP™ tablet (Roche, cat no. 04 906 837 001); Pierce™ BCA Protein Assay Kit (Thermofisher, Cat No. 23225); Precellys® 2 mL lysing tube with 2.8 mm beads (VWR, cat no. 10032-756); Bertin Precellys® 24/Cryolys ® cooling system; 96-well MSD streptavidin pre-coated plates (MSD, cat no. L15SA-1); MSD Blocker A (MSD, cat no. R93BA-4); capture antibody, biotinylated BTK mAb (BD Biosciences, cat no. 624008; custom order); primary detection antibody, BTK RpAb (rabbit polyclonal antibody, CST, cat no. 8547S, D3H5 clone); secondary detection antibody, anti-Rabbit-Sulfo-Tag (MSD, cat no. R32AB-1); read Buffer, 4× (MSD, cat no. R92TC-1); recombinant BTK protein (Thermofisher, cat no. PR5442A); MSD Tris Wash Buffer (10×) (MSD, cat no. R61TX-1); PBS (phosphate-buffered saline); deionized water (diH2O); Lysis Buffer [0.2% NP40 in PBS+Protease Inhibitor tablet (1 tablet/10 mL)+PhosphoSTOP tablet (1 tablet/10 mL)]; 3% MSD Blocker A [MSD Blocker A+450 mL diH2O+50 mL]; and 10× MSD Tris Wash Buffer.
Lysis buffer [(PBS+0.2% NP40+PI (protease inhibitor)+PhosphoSTOP)]was prepared and put on ice until it was fully cold. Ice cold lysis buffer […] was added to each Precellys® tube containing beads and bone marrow sample. Sample tubes were transferred into Precellys® machine and homogenized using 5000 rpm -2×20 seconds. The sample lysates were centrifuged at 14,000 rpm for 20 minutes at 4° C. after homogenizing.
The protein concentration was determined using Pierce™ BCA Protein Assay Kit following manufacturer's recommended protocol. The protein normalized working solution was prepared, using 30 μg protein per sample lysate for assay.
A 300 ng/ml working stock solution of recombinant BTK protein in lysis buffer was prepared, and the sample was serially diluted at 3-fold dilution (10-point assay, highest concentration was 300 ng/mL and lowest concentration was 0.015 ng/mL)
MSD plate coating: Coating antibody (biotinylated-BTK mAb) stock solution was prepared at 1 μg/mL in PBS buffer. 50 μL/well capture antibody (Biotinylated BTK mAb) solution was added, and the plates were shaken gently at ambient temperature for two hours. The plates were washed 3 times with 1× MSD Tris Wash Buffer in a plate washer (300 μL/well), and the plates were blocked with 3% MSD Blocker A (150 μL/well). The plates were incubated for an additional 1-2 hours at ambient temperature with gentle shaking. The plates were washed 3 times with 1× MSD wash buffer using plate washer. Bone marrow lysates (30 μg) at a final volume of 50 μL/well were added into the plates. The serially diluted standard samples were added to the same plates at a final volume of 50 μL/well. The plates were incubated overnight at 4° C. with gentle shaking.
The plates were washed three times with 1× MSD wash buffer (prepared from 10× concentration buffer) using plate washer. Primary detection antibody at 50 μL/well was added (BTK RpAb; 1:1000 dilution in 1% MSD Blocker A). The plates were incubated for two hours at ambient temperature with gentle shaking. The plates were washed three times with 1× MSD wash buffer using plate washer. Anti-Rabbit-SULFO-TAG secondary antibodies (50 μl/well) were added, 1:500 diluted in 1% MSD Blocker A, and the plates were incubated for one to two hours at ambient temperature. […]

Sequence of BTK protein in human whole blood (Q06187 whole entry): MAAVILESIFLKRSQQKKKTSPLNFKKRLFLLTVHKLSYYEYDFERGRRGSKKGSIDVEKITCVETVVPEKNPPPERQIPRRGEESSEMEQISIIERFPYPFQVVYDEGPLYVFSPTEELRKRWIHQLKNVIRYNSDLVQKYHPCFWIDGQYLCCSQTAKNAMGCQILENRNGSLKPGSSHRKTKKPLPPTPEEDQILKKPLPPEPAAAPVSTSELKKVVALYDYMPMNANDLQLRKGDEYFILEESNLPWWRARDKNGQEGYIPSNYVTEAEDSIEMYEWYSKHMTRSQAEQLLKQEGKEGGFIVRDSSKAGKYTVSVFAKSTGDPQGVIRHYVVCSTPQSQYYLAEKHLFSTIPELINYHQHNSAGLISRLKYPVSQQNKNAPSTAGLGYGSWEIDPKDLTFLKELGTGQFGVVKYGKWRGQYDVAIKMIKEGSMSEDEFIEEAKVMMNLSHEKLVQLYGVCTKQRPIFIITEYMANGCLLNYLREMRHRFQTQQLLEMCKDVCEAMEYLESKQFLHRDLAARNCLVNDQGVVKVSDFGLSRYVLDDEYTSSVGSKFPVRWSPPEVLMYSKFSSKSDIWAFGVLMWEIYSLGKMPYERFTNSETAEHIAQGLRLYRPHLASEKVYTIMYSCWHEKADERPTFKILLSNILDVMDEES
Sequence of BTK in mouse bone marrow (P35991 whole entry): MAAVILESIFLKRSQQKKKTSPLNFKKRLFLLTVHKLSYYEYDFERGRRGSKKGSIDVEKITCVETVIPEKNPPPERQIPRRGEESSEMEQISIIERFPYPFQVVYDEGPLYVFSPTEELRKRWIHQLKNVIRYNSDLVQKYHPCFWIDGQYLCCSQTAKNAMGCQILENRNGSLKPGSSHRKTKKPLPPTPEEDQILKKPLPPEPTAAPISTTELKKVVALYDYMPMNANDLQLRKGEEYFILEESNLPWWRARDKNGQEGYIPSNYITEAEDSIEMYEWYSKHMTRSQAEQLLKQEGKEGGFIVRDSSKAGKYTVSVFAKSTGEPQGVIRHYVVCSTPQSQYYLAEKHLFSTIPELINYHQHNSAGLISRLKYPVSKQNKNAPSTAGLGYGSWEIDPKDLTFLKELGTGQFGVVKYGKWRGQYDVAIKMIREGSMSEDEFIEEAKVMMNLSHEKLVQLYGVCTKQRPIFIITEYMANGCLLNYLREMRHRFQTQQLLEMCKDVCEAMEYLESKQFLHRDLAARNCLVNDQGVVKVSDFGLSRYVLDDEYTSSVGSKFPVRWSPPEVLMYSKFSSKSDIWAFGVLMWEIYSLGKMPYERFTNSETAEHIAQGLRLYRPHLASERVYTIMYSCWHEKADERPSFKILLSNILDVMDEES

DC50 [1] [nM]	Mouse Bone Marrow (%), % remaining BTK [2] [%]	Structure (SMILES)
4.31	29	Cc1c([C@@H](C)NC(=O)c2nc(C(C)(C)C)no2)ccc(-c2cc(Nc3ccc(N4CCN(CCc5ccc(N6CCC(=O)NC6=O)cc5)CC4)cn3)ncn2)c1F [Example 11, 3-tert-butyl-N-{(1R)-1-[4-(6-{[5-(4-{2-[4-(2,4-dioxo-1,3-diazinan-1-yl)phenyl]ethyl}piperazin-1-yl)pyridin-2-yl]amino}pyrimidin-4-yl)-3-fluoro-2-methylphenyl]ethyl}-1,2,4-oxadiazole-5-carboxamide]
3.04	9	Cc1c([C@@H](C)NC(=O)c2nc(C(C)(C)C)no2)ccc(-c2cc(Nc3ccc(N4CCN(CCc5ccc(N6CCC(=O)NC6=O)cc5)C[C@@H]4C)cn3)ncn2)c1F [Example 10, 3-tert-butyl-N-[(1R)-1-{4-[6-({5-[(2S)-4-{2-[4-(2,4-dioxo-1,3-diazinan-1-yl)phenyl]ethyl}-2-methylpiperazin-1-yl]pyridin-2-yl}amino)pyrimidin-4-yl]-3-fluoro-2-methylphenyl}ethyl]-1,2,4-oxadiazole-5-carboxamide]

— US20240109877A1, “PYRIMIDINES FOR DEGRADING BRUTON'S TYROSINE KINASE” (AbbVie Inc., priority 2022, published 2024)
